According to patent US7429557B2, “Replacement solvents having improved properties and methods of using the same” (Mainstream Engineering Corporation, priority 2005, dated 2008):
Where two headings read alike, the source gives them in different places.

Columns and labels:
Ames mutagenicity assay = test: Ames mutagenicity assay
Description: (§1) Skin irritation is also an important consideration for a solvent.

Chinese hamster = test: In vitro genotoxicity; settings: in vitro Chinese hamster oocytes
Description: as §1

LD50 = settings: in vivo
Description: Toxicity is yet another factor which must be considered when selecting second-generation replacement solvents. Parameters such as the lethal dose 50 (LD50), lethal concentration 50 (LC50), cardiac sensitization, skin irritation, and mutagenicity (e.g., via the Ames test) can be used as measures. LDn or LCn abbreviation, where n is the percent lethality, is used for the dose of a toxicant lethal to n % of a test population. […] Cardiac sensitization is a measure of the ability of a compound to cause cardiac arrhythmia under stress.
as §1

Skin irritation = settings: in vivo
Description: as §1

[1] = Coated metal coupon cleaning, gravimetric; settings: Krytox, 15 minute immersion, 15 mL
Protocol: (§2) A sample comprising 25 volume percent (A.) 4-bromo-3-chloro-3,4,4-trifluoro-1-butene and 75 volume percent (B.) 1-chloro-2,2,2-trifluoroethyl difluoromethyl ether was added to several beakers, each containing a metal coupon completely coated with one of the following materials: Mil Spec 83282 hydraulic oil, Mil Spec 7808 engine oil, Krytox fluorocarbon grease and Mil Spec 81322 aviation grease. Two batches were subjected to 15 minute immersion with 15 mL of solvent mixture but one was exposed to ultrasonic vibrations and the other kept static. Afterwards, the coupons were removed and weighed for gravimetric analysis.
as §2, with “50” for “25”, “50” for “75”
(§3) Two batches were subjected to 15 minute immersion with 15 mL of solvent mixture but one was exposed to ultrasonic vibrations and the other kept static. Afterwards, the coupons were removed and weighed for gravimetric analysis.
The compounds (A) 4-bromo-3-chloro-3,4,4-trifluoro-1-butene and (B) 1-chloro-2,2,2-trifluoroethyl difluoromethyl ether, were mixed 50:50 by volume and tested to remove Krytox. The individual components, A and B, remove 17.0% and 98.7%, respectively, of this contaminant after 15 min. with ultrasonic treatment. The mixture removed 99.3% of the same contaminant under the same conditions.

[2] = listed; cited from earlier work
[3] = Coated metal coupon cleaning, gravimetric; settings: 15 minute immersion, 15 mL
Protocol: as §2
as §2, with “50” for “25”, “50” for “75”
as §3

| Structure (SMILES) | Ames mutagenicity assay (Ames mutagenicity assay) | genotoxicity (Chinese hamster) | LD50 (LD50) | skin irritation (Skin irritation) | percent contaminant removed ([1]; Ultrasonic) | skin irritation [2] | percent contaminant removed ([3]; 7808 oil, Static) | percent contaminant removed ([3]; 7808 oil, Ultrasonic) | percent contaminant removed ([3]; 81322 grease, Static) | percent contaminant removed ([3]; 81322 grease, Ultrasonic) | percent contaminant removed ([3]; 83282 oil, Static) | percent contaminant removed ([3]; 83282 oil, Ultrasonic) | percent contaminant removed ([1]; Static) |
| --- | --- | --- | --- | --- | --- | --- | --- | --- | --- | --- | --- | --- | --- |
| C=CC(F)(Cl)C(F)(F)Br (stereo not drawn) [A, 4-bromo-3-chloro-3,4,4-trifluoro-1-butene] | negative | not genotoxic | > 40000 mg/kg | moderate to non-irritants | 17.0% |  |  |  |  |  |  |  |  |
| FC(F)(Cl)C(F)(Cl)Cl [CFC-113, 1,1,2-trichloro-1,2,2-trifluoroethane] |  |  |  |  | 97.7% | mild irritant | 100% | 99.2% | 24.1% | 94.8% | 100% | 100% | 36.2% |
| FC(F)OC(Cl)C(F)(F)F (stereo not drawn) [Compound B, 1-chloro-2,2,2 trifluoroethyl difluoromethyl ether] | negative | not genotoxic | 8100 mg/kg | moderate to non-irritants | 98.7% |  |  |  |  |  |  |  |  |
| FC(F)OC(F)(F)C(F)Cl (stereo not drawn) [Compound C, 2-chloro-1,1,2-trifluoroethyl difluoromethyl ether] | negative | not genotoxic | 13000 mg/kg | moderate to non-irritants |  |  |  |  |  |  |  |  |  |
| COC(C(F)(F)F)C(F)(F)F [E, methyl 2,2,2-trifluoroethyl-1-(trifluoromethyl)ether] | negative | not genotoxic | > 40000 mg/kg | moderate to non-irritants |  |  |  |  |  |  |  |  |  |
